In US6034134A, “1-Amino-alkylcyclohexane NMDA receptor antagonists” (Merz + Co. GmbH & Co., priority 1998, dated 2000):
pIC50: −log10 of the molar value. Counter-ions that a name gives are not always drawn. Like-named read-outs stand apart in the source and are kept apart here.

Assays:
NMDA receptor = test: Patch clamp: NMDA-induced inward currents in cultured hippocampal neurones; type: cell-based, rat
Experimental: Hippocampi were obtained from rat embryos (E20 to E21) and were then transferred to calcium and magnesium free Hank's buffered salt solution (Gibco) on ice. Cells were mechanically dissociated in 0.05% DNAase/0.3% ovomucoid (Sigma) following an 8 minute pre-incubation with 0.66% trypsin/0.1% DNAase (Sigma). The dissociated cells were then centrifuged at 18 ×g for 10 minutes, re-suspended in minimum essential medium (Gibco) and plated at a density of 150,000 cells cm^-2 onto poly-L-lysine (Sigma)-precoated plastic petri dishes (Falcon). The cells were nourished with NaHCO3 /HEPES-buffered minimum essential medium supplemented with 5% fetal calf serum and 5% horse serum (Gibco) and incubated at 37° C. with 5% CO2 at 95% humidity. […] Thereafter the medium was exchanged partially twice weekly.
Patch clamp recordings were made from these neurones with polished glass electrodes (4-6 m.OMEGA.) in the whole cell mode at room temperature (20-22° C.) with the aid of an EPC-7 amplifier (List). Test substances were applied by switching channels of a custom-made fast superfusion system with a common outflow (10-20 ms exchange times). The contents of the intracellular solution were as follows (mM): CsCl (120), TEACl (20), EGTA (10), MgCl2 (1), CaCl2 -(0.2), glucose (10), ATP(2), cAMP (0.25); pH was adjusted to 7.3 with CsOH or HC1. The extracellular solutions had the following basic composition (mM): NaCl (140), KCl (3), CaCl2 (0.2), glucose (10), HEPES (10), sucrose (4.5), tetrodotoxin (TTX 3*10^-4). Glycine (1 μM) was present in all solutions: a concentration sufficient to cause around 80-85% activation of glycineB receptors. Only results from stable cells were accepted for inclusion in the final analysis, i.e., following recovery of responses to NMDA by at least 75% of their depression by the antagonists tested.
(§1) IC50 s in patch clamp, excitotoxicity, and binding studies were calculated according to the four parameter logistic equation using the Grafit computer program (Erithacus Software, England). Ki value for binding studies were then determined according to Cheng and Prusoff. Binding values presented are means±SEM of 3-5 determinations (each performed in duplicate). […] Pearson product moment correlation analysis (Sigma Stat, Jandel Scientific) was used to compare in vitro potencies and in vivo anticonvulsant activity.

cortical neurones = test: Excitotoxicity: glutamate toxicity in cultured cortical neurones (MTT); type: cell-based, rat; conditions: for pIC50: Rattus norvegicus, Cortical neurone
Experimental: Cortical neurones were obtained from cerebral cortices of 17/18 day old fetal rats (Wistar), in general following the dissociation procedure described by. After short trypsinization and gentle trituration with fire-polished Pasteur pipettes, the cell suspension was washed by centrifugation. Cells were suspended in serum-free Neurobasal medium with B27 supplement (GIBCO) before plating onto poly-L-lysine (Sigma; 0.2 mg/ml, 20 h, 4° C.) and laminin (Sigma; 2 μg/ml, 1 h, 37° C.)-coated 96-well plates (Falcon, Primaria) at a density of 5×10^4 cells/well. Cortical neurones were maintained at 37° C. in humidified 10% CO2 /90% air. […] The medium was changed first after 4 days in vitro and then every 4 days by replacing 2/3 of the medium with astrocyte-conditioned medium. Cortical neurones between day 12 and 14 in culture were used for the experiments.
New-born rat astrocytes were isolated non-enzymatically according to the method of [24]. Briefly, both hemispheres were dissected from 2-day-old rats, passed through an 80 μm gauze, and triturated with Pasteur pipettes. Cell suspension was made in Dulbecco's modified essential medium (DMEM, Gibco) supplemented with 10% fetal calf serum (FCS, Hyclone), 2 mM glutamine (Gibco) and 50 μg/ml gentamycin and transferred into untreated, plastic culture flasks (Corning; […]). Two days after plating the flasks were shaken for 10 minutes on a rotary platform (150 U/min) to remove microglial cells. The cultures were grown to confluency within 14 days, and the culture medium was changed twice weekly. Thereafter, the glial monolayers were extensively washed with serum-free Neurobasal medium (Gibco) to remove the serum. Flasks were then shaken several times to remove oligodendrocytes and neurones. To obtain conditioned medium from primary astrocytes, the cultures were incubated with fresh Neurobasal medium supplemented with B27 andglutamine. Every 2-3 days the conditioned medium was collected and replaced by fresh medium up to 4 times.
Exposure to EAA was performed in serum-free Neurobasal medium containing 100 μM glutamate and the drug to be tested. After 20 h of incubation, the cytotoxic effect was morphologically examined under a phase contrast microscope and biochemically quantified by measuring cell viability with the MTT test (Promega). This calorimetric assay measures the reduction of a tetrazolium component (MTT) into an insoluble formazan product by the mitochondria of living cells. After incubation of the cortical neurones with the dye solution for approximately 1-4 hours, a solubilization solution was added to lyse the cells and solubilize the colored product (incubation overnight at 37° C., 10% CO2, 90% RH). These samples were then read using an Elisa plate reader (Thermomax, MWG Biotech) at a wavelength of 570 nm. The amount of color produced was directly proportional to the number of viable cells.
as §1

[1] = Traction reflex test (myorelaxant action) in mice, therapeutic index versus MES; type: in vivo; conditions: ED50 for traction reflex impairment divided by ED50 for MES; for selectivity ratio at 0.5 h: mouse, in vivo, ip, read-out: TI Tract; for TI Tract: 30 min
Experimental: NMR female mice (18-28 g) housed 5 per cage were used for the maximal electroshock (MES) and motor impairment tests. […] All compounds were dissolved in 0.9% saline.
The MES test was performed together with tests for myorelaxant action (traction reflex) and motor coordination (rotarod). For the traction reflex test mice were placed with their forepaws on a horizontal rod and were required to place all 4 paws on the wire within 10 seconds. To test ataxia (motor coordination) mice were placed on rotarod (5 rpm) and were required to remain on the rod for 1 minute. […] These tests were followed by MES (100 Hz, 0.5 second shock duration, 50 mA shock intensity, 0.9 ms impulse duration, Ugo Basile) applied through corneal electrodes. The presence of tonic convulsions was scored (tonic extension of hind paws with minimum angle to the body of 90°). The aim was to obtain ED50 s for all parameters scored (anticonvulsive activity and motor side effects) with use of the Litchfield Wilcoxon test for quantal dose responses. Division of the ED50 for side effects (ataxia or myorelaxation) by the ED50 for antagonism of electroshock convulsions was used as a therapeutic index (TI). […]

[2] = Table 9; NMDA-induced currents; read-out: Patch Clamp IC50
[3] = Table 9, 100 μM glutamate, read-out: Glut Tox IC50
[4] = Table 7; NMDA 200 μM with glycine 1 μM at -70 mV; read-out: Patch Clamp IC50
[5] = Table 7, 100 μM glutamate, 20 h, read-out: Glut. Tox. IC50
[6] = read-out: Patch Clamp IC50; Table 7; NMDA 200 μM with glycine 1 μM at -70 mV
[7] = read-out: Patch Clamp IC50; Table 9; NMDA-induced currents
[8] = 20 h, read-out: Glut. Tox. IC50

Row | SMILES | pIC50 (NMDA receptor; [2]) | pIC50 (cortical neurones; [3]) | selectivity ratio at 0.5 h [1] | pIC50 (NMDA receptor; [4]) | pIC50 (cortical neurones; [5]) | TI Tract [1] | pIC50 (NMDA receptor; [6]) | pIC50 (NMDA receptor; [7]) | pIC50 (cortical neurones; [8]) | pIC50 (cortical neurones; read-out: Glut Tox IC50) | neuroprotection in vitro (in words) (cortical neurones)
1 | C[C@@H]1C[C@H](C)C[C@](C)(N)C1 [MRZ 2/681, 1,cis-3,cis-5-Trimethylcyclohexylamine hydrochloride hydrate] | 4.52 | 4.57 | 2.1 | – | – | – | – | – | – | – | –
2 | CCCC1(C)CCCC(C)(N)C1 (stereo not drawn) [Mrz 2/617] | 4.19 | < 4.15 | – | 4.24 | < 4.15 | – | – | – | – | – | –
3 | CCCC1(C)CC(C)(C)CC(C)(N)C1 (stereo not drawn) [Mrz 2/614] | 4.86 | 5.90 | 1.9 | 4.86 | < 5.00 | – | – | – | – | – | –
4 | CC(C)(N)CC1CC(C)(C)CC(C)(C)C1 [Mrz 2/645] | 4.69 | < 4.00 | – | 4.69 | < 4.00 | – | – | – | – | – | –
5 | CCC[C@]1(C)C[C@@H](C)C[C@@](C)(N)C1 (relative stereo) [Mrz 2/619] | 4.22 | 4.51 | – | 4.22 | 4.51 | 1.0 | – | – | – | – | –
6 | CCC[C@@H]1CC(C)(C)C[C@](C)(N)C1 (relative stereo) [Mrz 2/634] | 4.97 | 4.72 | – | 4.97 | 4.72 | – | – | – | – | – | –
7 | C[C@@H]1CC(C)(C)C[C@@](C)(N)C1 (relative stereo) [Mrz 2/607] | 4.86 | 5.00 | – | 4.86 | 5.00 | 1.3 | – | – | – | – | –
8 | CCC[C@@]1(C)C[C@H](C)C[C@@](C)(N)C1 (relative stereo) [Mrz 2/618] | 4.24 | 4.75 | – | 4.36 | 4.75 | 1.2 | – | – | – | – | –
9 | C[C@H]1CCC[C@@](C)(N)C1 (relative stereo) [Mrz 2/631] | < 4.00 | < 4.00 | – | < 4.00 | < 4.00 | – | – | – | – | – | –
10 | CC[C@H]1CC(C)(C)C[C@@](C)(N)C1 (relative stereo) [Mrz 2/632] | 5.19 | 4.95 | – | 5.19 | 4.96 | 2.7 | – | – | – | – | –
11 | CC1(N)CCCCC1 [Mrz 2/641] | < 4.00 | < 4.00 | – | < 4.00 | < 4.00 | – | – | – | – | – | –
12 | CC1CC(C)CC(C)(N)C1 (stereo not drawn) [Mrz 2/616, 1-amino-1,3,5-trimethylcyclohexane] | 4.48 | 5.04 | – | 4.47 | 5.04 | 1.0 | – | – | – | – | –
13 | CCCC1(N)CC(C)(C)CC(C)(C)C1 [Mrz 2/601, 1-amino-1-propyl-3,3,5,5-tetramethylcyclohexane] | – | – | – | – | – | 1.5 | 4.98 | 5.00 | 5.46 | 5.46 | –
14 | CC[C@@]1(C)C[C@H](C)C[C@@](C)(N)C1 (relative stereo) [Mrz 2/622] | 4.24 | 4.71 | – | 4.19 | 4.71 | 1.1 | – | – | – | – | –
15 | CCNC1(C)CC(C)(C)CC(C)(C)C1 [Mrz 2/639, N-ethyl-1-amino-1,3,3,5,5-pentamethylcyclohexane] | 5.13 | 5.20 | – | 5.13 | 5.24 | 2.6 | – | – | – | – | –
16 | CCC1(C)CCCC(C)(N)C1 (stereo not drawn) [Mrz 2/620] | 4.00 | 4.42 | 1.6 | 4.00 | 4.42 | – | – | – | – | – | –
17 | CC[C@@H]1CC(C)(C)C[C@@](C)(N)C1 (relative stereo) [Mrz 2/633] | 4.86 | 5.21 | – | 4.86 | 5.27 | 2.4 | – | – | – | – | –
18 | CCCC1(CCC)CC(C)(C)CC(C)(N)C1 (stereo not drawn) [Mrz 2/626] | 5.02 | 4.72 | 1.1 | 5.02 | 4.72 | – | – | – | – | – | –
19 | C[C@@H]1C[C@H](C)C[C@@](C)(N)C1 [MRZ 2/680, 1,trans-3,trans-5-Trimethylcyclohexylamine hydrochloride] | 4.37 | 4.45 | 0.7 | – | – | – | – | – | – | – | –
20 | CC1(C)CC(CN)CC(C)(C)C1.Cl [Mrz 2/580, 3,3,5,5-tetramethylcyclohexylmethylamine hydrochloride] | 4.89 | 5.25 | – | 4.89 | 5.25 | 1.6 | – | – | – | – | –
21 | CCC1(C)CC(C)(C)CC(C)(N)C1 (stereo not drawn) [Mrz 2/615, 1-amino-1,3,5,5-tetramethyl-3-ethylcyclohexane] | 5.54 | 5.64 | – | 5.54 | 5.64 | 2.5 | – | – | – | – | –
22 | CC[C@H]1CCC[C@@](C)(N)C1 (relative stereo) [Mrz 2/630] | 4.00 | < 4.00 | – | < 4.00 | < 4.00 | – | – | – | – | – | –
23 | CC1(C)CC(C)(C)CC(C)(N)C1 [Mrz 2/579, 1-amino-1,3,3,5,5-pentamethylcyclohexane] | 5.89 | 5.67 | – | 5.89 | 5.66 | 2.9 | – | – | – | – | most potent
24 | CC[C@H]1CC(C)(C)C[C@@](C)(N)C1 [MRZ 2/683, (1S, 5S) cis-3-Ethyl-1,5,5-trimethylcyclohexylamine hydrochloride hydrate] | 5.37 | 5.29 | 2.7 | – | – | – | – | – | – | – | –
25 | CC12CC3CC(C)(C1)CC(N)(C3)C2 [Memantine, reference compound] | – | – | 2.9 | – | – | – | 5.64 | 5.54 | 5.89 | 5.85 | –
